Data from ChEMBL document CHEMBL1201862, “PubChem BioAssay data set” (2004).
Activity calls are given as the source filed them. Rule as the data show it, for most assays here: actives have a measured IC50 and inactives only a lower limit.

Legend:
Format in all cases: functional
[1] = biological target: Intestinal-type alkaline phosphatase (Homo sapiens, UniProt P09923); experiment: inhibition of human intestinal alkaline phosphatase – biochemical, dose response (AID 488876)
Bcl-2-related protein A1 = biological target: T1, Bcl-2-related protein A1 (Mus musculus, UniProt Q07440);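 also: confirmatory dose–response counterscreen on Bfl-1, used to check hits from a UBC13 polyubiquitin inhibitor campaign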
T1 sequence (Q07440 whole entry): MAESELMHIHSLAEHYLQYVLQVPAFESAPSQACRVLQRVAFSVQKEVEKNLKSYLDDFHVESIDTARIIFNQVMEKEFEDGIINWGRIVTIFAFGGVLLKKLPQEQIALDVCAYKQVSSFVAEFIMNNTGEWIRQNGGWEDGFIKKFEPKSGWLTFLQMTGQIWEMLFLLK

Mu-type opioid receptor = Mu-type opioid receptor (Homo sapiens, UniProt P35372); experiment: Counterscreen for agonists of heterodimerization of the mu 1 (OPRM1) and delta 1 (OPRD1) opioid receptors: Luminescence-based cell-based high throughput dose response assay to identify agonists of OPRM1 homodimerization.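 Also: U2OS cells expressing OPRM1 and beta-arrestin as split beta-galactosidase partners.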
[2] = biological target: T2, Alkaline phosphatase, tissue-nonspecific isozyme (Homo sapiens, UniProt P05186); experiment: TNAP enzyme inhibition by screening hits, dose response, selectivity assay for mouse IAP inhibitor project, biochemical, human TNAP, uHTS hits (AID 488906)
T2 sequence (P05186 whole entry): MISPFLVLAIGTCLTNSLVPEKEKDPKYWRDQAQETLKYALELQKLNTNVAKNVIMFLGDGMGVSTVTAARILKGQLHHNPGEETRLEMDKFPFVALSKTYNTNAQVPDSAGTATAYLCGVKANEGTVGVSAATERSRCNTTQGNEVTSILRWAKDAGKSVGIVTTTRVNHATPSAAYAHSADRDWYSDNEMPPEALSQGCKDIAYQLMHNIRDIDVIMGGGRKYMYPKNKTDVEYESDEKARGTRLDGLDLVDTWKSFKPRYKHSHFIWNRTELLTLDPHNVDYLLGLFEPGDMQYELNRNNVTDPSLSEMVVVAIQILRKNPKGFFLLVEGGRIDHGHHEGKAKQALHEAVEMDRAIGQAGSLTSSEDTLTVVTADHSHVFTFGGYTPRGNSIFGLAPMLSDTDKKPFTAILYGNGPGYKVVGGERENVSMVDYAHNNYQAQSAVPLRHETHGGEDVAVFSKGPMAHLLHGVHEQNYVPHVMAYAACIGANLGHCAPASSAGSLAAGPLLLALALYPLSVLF

[3] = biological target: 5-hydroxytryptamine receptor 5A (Homo sapiens, UniProt P47898); experiment: Counterscreen for agonists of OPRM1-OPRD1 heterodimerization: luminescence-based cell-based high throughput dose response assay to identify agonists of 5-hydroxytryptamine (serotonin) 5A receptor (HTR5A). [Related pubchem assays (depositor defined):AID504326, AID504355, AID504692, AID504904, AID504905]
Chain of 5-hydroxytryptamine receptor 5A (P47898 whole entry): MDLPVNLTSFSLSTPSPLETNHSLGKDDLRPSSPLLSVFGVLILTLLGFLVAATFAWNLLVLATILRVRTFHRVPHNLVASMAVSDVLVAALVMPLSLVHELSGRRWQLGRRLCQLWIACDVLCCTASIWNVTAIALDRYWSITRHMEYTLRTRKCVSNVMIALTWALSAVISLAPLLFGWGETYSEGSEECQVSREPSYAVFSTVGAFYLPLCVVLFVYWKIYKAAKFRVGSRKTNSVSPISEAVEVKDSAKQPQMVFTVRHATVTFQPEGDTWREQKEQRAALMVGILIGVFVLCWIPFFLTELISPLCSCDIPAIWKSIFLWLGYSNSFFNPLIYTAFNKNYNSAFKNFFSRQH

Chain of Mu-type opioid receptor (P35372 whole entry): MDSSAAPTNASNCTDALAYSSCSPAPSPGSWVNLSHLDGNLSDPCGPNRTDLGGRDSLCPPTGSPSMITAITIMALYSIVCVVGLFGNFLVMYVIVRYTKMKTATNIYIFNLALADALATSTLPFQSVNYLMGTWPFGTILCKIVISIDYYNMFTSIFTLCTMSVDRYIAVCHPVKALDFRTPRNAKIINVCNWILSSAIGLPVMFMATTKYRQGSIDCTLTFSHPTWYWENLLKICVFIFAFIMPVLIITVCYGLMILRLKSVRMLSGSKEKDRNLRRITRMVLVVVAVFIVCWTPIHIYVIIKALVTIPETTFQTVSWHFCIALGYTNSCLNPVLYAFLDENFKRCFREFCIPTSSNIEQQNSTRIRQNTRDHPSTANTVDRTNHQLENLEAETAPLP
Chain of Intestinal-type alkaline phosphatase (P09923 whole entry): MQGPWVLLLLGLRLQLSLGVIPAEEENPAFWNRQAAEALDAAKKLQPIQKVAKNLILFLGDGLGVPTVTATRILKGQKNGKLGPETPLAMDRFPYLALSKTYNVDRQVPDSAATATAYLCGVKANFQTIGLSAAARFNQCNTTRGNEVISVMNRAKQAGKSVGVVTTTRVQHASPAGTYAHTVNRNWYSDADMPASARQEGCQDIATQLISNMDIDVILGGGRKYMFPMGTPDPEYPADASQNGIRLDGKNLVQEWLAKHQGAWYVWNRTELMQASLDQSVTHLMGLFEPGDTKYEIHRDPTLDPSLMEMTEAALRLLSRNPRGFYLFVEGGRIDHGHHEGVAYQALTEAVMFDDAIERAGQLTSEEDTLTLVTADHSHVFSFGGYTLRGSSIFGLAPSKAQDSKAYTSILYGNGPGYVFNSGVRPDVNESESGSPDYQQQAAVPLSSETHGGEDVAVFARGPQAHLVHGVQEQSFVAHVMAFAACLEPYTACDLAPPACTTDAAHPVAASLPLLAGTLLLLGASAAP

Question: Which IC50 [1] does the source give for `Clc1ccc(C(c2ccc(Cl)cc2)n2cc[n+](CC(OCc3ccc(Cl)cc3Cl)c3ccc(Cl)cc3Cl)c2)cc1` (stereo not given) [CALMIDAZOLIUM CHLORIDE] here?
Answer: Its IC50 is > 100 µM (inactive).

Question: What about the IC50 (Bcl-2-related protein A1) of the same molecule?
Answer: The IC50 was 6.23 µM (active).

Question: What about the EC50 (Mu-type opioid receptor) of the same molecule?
Answer: Its EC50 is > 92.5 µM (inactive).

Question: And the IC50 [2]?
Answer: The IC50 was > 100 µM (inactive).

Question: And the EC50 [3]?
Answer: Its EC50 is > 92.5 µM (inactive).
